System: CD1 female mouse brain lipidome
Assay: Brain-region lipid levels (HPLC/MS/MS lipidomics) 2 h after single i.p. 3 mg/kg CP 55,940 vs vehicle
Format: in vivo
Set-up: N-arachidonoyl phenylalanine level, Mean / N-stearoyl tryptophan level, Mean / N-stearoyl proline level, Mean / N-stearoyl leucine level, Mean / N-stearoyl phenylalanine level, Mean / N-stearoyl serine level, Mean / N-stearoyl methionine level, Mean: unit: moles per gram
Details: thalamus, 3 mg/kg CP 55,940
Protocol: The Bloomington Institutional Animal Care and Use Committee of Indiana University reviewed and approved the animal procedures. Female mice from the CD1 strain were utilized to match our study examining THC’s effects on the brain lipidome ([Leishman et al., 2018]). Mice were given a single i.p. injection of either 3 mg/kg CP or 1:1:18 cremophor:ethanol:saline vehicle (please refer to the section “3 mg/kg CP Is Relevant for Synthetic Cannabinoid Abuse and Has Stronger Effects on the Female Mouse Brain Lipidome During Adolescence” for a justification of dose and use of female mice). Three different age groups were given injections: PND 35 and PND 50 adolescents, and adult mice (PND 113). At least eight mice in each age group received CP and at least eight received vehicle. Matching the THC study time course ([Leishman et al., 2018]), mice were sacrificed via rapid decapitation 2 h after injection. Brains were immediately removed and flash-frozen in liquid nitrogen, and then stored at -80°C until dissections were performed. Brains were dissected on an ice-cold dissection plate into the following regions: STR, HIPP, CER, THAL, CTX, HYP, MID, and STEM. These abbreviations for these brain areas will be used exclusively when discussing the results generated by these specific dissections. Each dissected area was immediately placed in liquid nitrogen and then stored at -80°C until used for lipid extraction.
Tissue extracts were performed as previously described ([Bradshaw et al., 2006]; [Stuart et al., 2013]; [Raboune et al., 2014]; [Leishman et al., 2016a],[b], [2017], [2018]). First, samples were shock frozen in liquid nitrogen, weighed, and transferred to a centrifuge tube. The mass of the largest sample was multiplied by 50 to determine how many milliliters of HPLC-grade methanol (Fisher, Fair Lawn, NJ, United States) to add. Then, samples were spiked with 500 pmol deuterium-labeled NAGly (d8NAGly; Cayman Chemical, Ann Arbor, MI, United States). Samples were placed on ice in darkness for 2 h then individually homogenized and centrifuged at 19,000 × g for 20 min at 20°C. Supernatants were diluted with HPLC water (purified in house) to make a solution of 75% water, 25% supernatant. Lipids were partially purified on C18 solid phase extraction columns (Agilent, Palo Alto, CA, United States). A series of four elutions with 1.5 mL of 60%, 75%, 85%, and 100% methanol were collected ([Stuart et al., 2013]; [Leishman et al., 2016a],[b], [2018]).
As previously described ([Bradshaw et al., 2006]; [Tan et al., 2006]; [Smoum et al., 2010]; [Stuart et al., 2013]; [Tortoriello et al., 2013]; [Raboune et al., 2014]; [Leishman et al., 2016a],[b], [2017], [2018]), samples were analyzed using an Applied Biosystems API 3000 triple quadrupole mass spectrometer with electrospray ionization (Foster City, CA, United States). Using an Agilent XDB-C18 reversed phase analytical column and optimized mobile phase gradients, 20 μL from each elution were chromatographed. Two Shimadzu 10ADvp pumps (Columbia, MD, United States) provided the pressure for gradient elution. Mobile phase A: 20% methanol, 80% water (v/v) and 1 mM ammonium acetate (Sigma, St. Louis, MO, United States). Mobile phase B: 100% methanol, 1 mM ammonium acetate. Every method run began with 0% mobile phase B, reached 100% mobile phase B flowing at 0.2 mL/min, and gradually returned to 0% mobile phase B.
This screening library will be referred to as the lipidome when discussing data from this study. HPLC/MS/MS data were analyzed using Analyst software (Applied Biosystems) ([Bradshaw et al., 2006]; [Tan et al., 2006]; [Stuart et al., 2013]; [Tortoriello et al., 2013]; [Raboune et al., 2014]; [Leishman et al., 2016a],[b], [2017], [2018]). Chromatograms (Supplementary Figure 3) were generated by determining the retention time of analytes from the analytical column with a [M-1] or [M+1] parent peak and a fragmentation peak corresponding to the programmed values. […]

## CCCCCCC(C)(C)c1ccc([C@@H]2C[C@H](O)CC[C@H]2CCCO)c(O)c1 [CP 55,940]
PND 35
  N-oleoyl glycine Direction (relative to Veh): ↓
  N-oleoyl glycine Magnitude (x Veh level): 0.91 x Veh level
  N-oleoyl leucine Direction (relative to Veh): ↑
  N-oleoyl leucine Magnitude (x Veh level): 1.27 x Veh level
  N-oleoyl valine Direction (relative to Veh): ↑
  N-oleoyl valine Magnitude (x Veh level): 1.44 x Veh level
  N-palmitoyl GABA Direction (relative to Veh): ↑
  N-palmitoyl GABA Magnitude (x Veh level): 1.21 x Veh level
  N-palmitoyl leucine, Direction (relative to Veh): ↑
  N-palmitoyl leucine, Magnitude (x Veh level): 1.42 x Veh level
  N-palmitoyl phenylalanine Direction (relative to Veh): ↑
  N-palmitoyl phenylalanine Magnitude (x Veh level): 1.35 x Veh level
  N-palmitoyl tyrosine Magnitude (x Veh level): 1.34 x Veh level
  N-palmitoyl tyrosine, Direction (relative to Veh): ↑
  N-palmitoyl valine Direction (relative to Veh): ↑
  N-palmitoyl valine Magnitude (x Veh level): 1.79 x Veh level
  N-stearoyl serine Direction (relative to Veh): ↓
  N-stearoyl serine Magnitude (x Veh level): 0.83 x Veh level
  N-stearoyl tyrosine Direction (relative to Veh): ↓
  N-stearoyl tyrosine Magnitude (x Veh level): 0.81 x Veh level
  N-stearoyl valine Direction (relative to Veh): ↑
  N-stearoyl valine Magnitude (x Veh level): 1.26 x Veh level
  PGE2 Direction (relative to Veh): ↑
  PGE2 Magnitude (x Veh level): 1.16 x Veh level
  phosphoLEA Direction (relative to Veh): ↑
  phosphoLEA Magnitude (x Veh level): 1.24 x Veh level
PND 35 adolescent female mice
  2-arachidonoyl glycerol level, Mean: 3.59E-10
  2-linoleoyl glycerol level, Mean: 1.52E-10
  2-oleoyl glycerol level, Mean: 1.68E-09
  2-palmitoyl glycerol level, Mean: 5.34E-10
  6-ketoPGF1α level, Mean: 1.42E-11
  Arachidonic acid level, Mean: 2.14E-09
  Linoleic acid level, Mean: 5.7E-10
  N- stearoyl valine level, Mean: 1.07E-12
  N-arachidonoyl GABA level, Mean: 2.62E-11
  N-arachidonoyl alanine level, Mean: 1.02E-11
  N-arachidonoyl dopamine level, Mean: BDL
  N-arachidonoyl ethanolamine level, Mean: 2.8E-11
  N-arachidonoyl glycine level, Mean: 4.62E-11
  N-arachidonoyl phenylalanine level, Mean: 1.31E-12
  N-arachidonoyl serine level, Mean: 6.28E-12
  N-arachidonoyl taurine level, Mean: 5.99E-11
  N-arachidonoyl tryptophan level, Mean: BDL
  N-arachidonoyl tyrosine level, Mean: 7.9E-13
  N-docosahexaenoyl GABA level, Mean: 2.9E-12
  N-docosahexaenoyl alanine level, Mean: 4.07E-12
  N-docosahexaenoyl ethanolamine level, Mean: 4.03E-11
  N-docosahexaenoyl glycine level, Mean: 1.76E-11
  N-docosahexaenoyl leucine level, Mean: 8.15E-13
  N-docosahexaenoyl phenylalanine level, Mean: 1.14E-12
  N-docosahexaenoyl proline level, Mean: BDL
  N-docosahexaenoyl serine level, Mean: 2.59E-11
  N-docosahexaenoyl tyrosine level, Mean: 7.13E-13
  N-docosahexaenoyl valine level, Mean: 2E-13
  N-linoleoyl GABA level, Mean: 9.8E-13
  N-linoleoyl alanine level, Mean: 1.66E-12
  N-linoleoyl ethanolamine level, Mean: 5.07E-11
  N-linoleoyl glycine level, Mean: 4.36E-12
  N-linoleoyl leucine level, Mean: 3.45E-13
  N-linoleoyl methionine level, Mean: BDL
  N-linoleoyl proline level, Mean: BDL
  N-linoleoyl serine level, Mean: 5.67E-11
  N-linoleoyl tryptophan level, Mean: BDL
  N-linoleoyl tyrosine level, Mean: BDL
  N-nervonoyl valine level, Mean: BDL
  N-oleoyl GABA level, Mean: 5.58E-12
  N-oleoyl alanine level, Mean: 7.79E-12
  N-oleoyl dopamine level, Mean: BDL
  N-oleoyl ethanolamine level, Mean: 1.71E-10
  N-oleoyl glycine level, Mean: 2.36E-11
  N-oleoyl leucine level, Mean: 2.09E-12
  N-oleoyl methionine level, Mean: 1.17E-12
  N-oleoyl phenylalanine level, Mean: 1.2E-12
  N-oleoyl serine level, Mean: 3.24E-10
  N-oleoyl tryptophan level, Mean: 1.87E-13
  N-oleoyl tyrosine level, Mean: 4.87E-13
  N-oleoyl valine level, Mean: 9.01E-13
  N-palmitoyl GABA level, Mean: 1.41E-11
  N-palmitoyl alanine level, Mean: 1.21E-11
  N-palmitoyl ethanolamine level, Mean: 8.69E-11
  N-palmitoyl glycine level, Mean: 4.99E-11
  N-palmitoyl leucine level, Mean: 4.1E-12
  N-palmitoyl methionine level, Mean: 1.84E-12
  N-palmitoyl phenylalanine level, Mean: 2.75E-12
  N-palmitoyl proline level, Mean: 1.05E-12
  N-palmitoyl serine level, Mean: 1.05E-10
  N-palmitoyl tryptophan level, Mean: 4.31E-13
  N-palmitoyl tyrosine level, Mean: 1.31E-12
  N-palmitoyl valine level, Mean: 2.65E-12
  N-stearoyl GABA level, Mean: 1.05E-11
  N-stearoyl alanine level, Mean: 1.24E-11
  N-stearoyl ethanolamine level, Mean: 1.97E-11
  N-stearoyl glycine level, Mean: 2.74E-11
  N-stearoyl leucine level, Mean: 1.66E-12
  N-stearoyl methionine level, Mean: 1.9E-12
  N-stearoyl phenylalanine level, Mean: 2.22E-12
  N-stearoyl proline level, Mean: 5.08E-13
  N-stearoyl serine level, Mean: 3.19E-11
  N-stearoyl tryptophan level, Mean: 1.26E-12
  N-stearoyl tyrosine level, Mean: 1.15E-13
  Oleic acid level, Mean: 1.67E-09
  PGE2 level, Mean: 6.31E-10
  PhosphoLEA level, Mean: 2.93E-11
